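GI50 marks 50% less growth. TGI is the concentration that stops growth completely.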
Legend:
Assay in all cases: inhibition of tumour cell growth, NCI panel, 384-well format
SK-MEL-28 melanoma = test system: SK-MEL-28 melanoma
786-0 renal = test system: 786-0 renal
M14 melanoma = test system: M14 melanoma
OVCAR-4 ovarian = test system: OVCAR-4 ovarian
OVCAR-8 ovarian = test system: OVCAR-8 ovarian
RXF 393 renal = test system: RXF 393 renal
K-562 leukemia = test system: K-562 leukemia
SNB-75 CNS = test system: SNB-75 CNS
HCT-15 colon = test system: HCT-15 colon
LOX IMVI melanoma = test system: LOX IMVI melanoma
IGROV1 ovarian = test system: IGROV1 ovarian
MCF7 breast = test system: MCF7 breast
U251 glioblastoma = test system: U251 glioblastoma
HS 578T breast = test system: HS 578T breast
NCI-H322M lung = test system: NCI-H322M lung
KM12 colon = test system: KM12 colon
NCI-H522 lung = test system: NCI-H522 lung
NCI-H23 lung = test system: NCI-H23 lung
SR leukemia = test system: SR leukemia
ACHN renal = test system: ACHN renal
COLO 205 colon = test system: COLO 205 colon
SF-268 CNS = test system: SF-268 CNS
MALME-3M melanoma = test system: MALME-3M melanoma
A549 NSCLC = test system: A549 NSCLC
PC-3 prostate = test system: PC-3 prostate
RPMI-8226 leukemia = test system: RPMI-8226 leukemia
SF-295 CNS = test system: SF-295 CNS
HT29 colon = test system: HT29 colon
HCC-2998 colon = test system: HCC-2998 colon
TK-10 renal = test system: TK-10 renal
T-47D breast = test system: T-47D breast
CAKI-1 renal = test system: CAKI-1 renal
SK-MEL-5 melanoma = test system: SK-MEL-5 melanoma
UACC-257 melanoma = test system: UACC-257 melanoma
MDA-MB-435 melanoma = test system: MDA-MB-435 melanoma
UACC-62 melanoma = test system: UACC-62 melanoma
NCI-H460 NSCLC = test system: NCI-H460 NSCLC
HOP-92 NSCLC = test system: HOP-92 NSCLC
SK-MEL-2 melanoma = test system: SK-MEL-2 melanoma
DU-145 prostate = test system: DU-145 prostate
SK-OV-3 ovarian = test system: SK-OV-3 ovarian
HCT-116 colon = test system: HCT-116 colon
OVCAR-5 ovarian = test system: OVCAR-5 ovarian
SN12C renal = test system: SN12C renal
SNB-19 CNS = test system: SNB-19 CNS
SW-620 colon = test system: SW-620 colon
UO-31 renal = test system: UO-31 renal

For CN1C(=O)[C@@H](CC2CCCC2)N(C2CCCC2)c2nc(Nc3cc(Cl)c(O)c(Cl)c3)ncc21, the GI50 (SK-MEL-28 melanoma) was 4.79 µM, the TGI (SK-MEL-28 melanoma) was > 100 µM and the GI50 ([…]-0 renal) was 8.07 µM. The TGI (786-0 renal) was 24.3 µM, the GI50 (M14 melanoma) was 6.27 µM and the TGI (M14 melanoma) was 97.7 µM. For the same compound, the GI50 (OVCAR-4 ovarian) was 5.33 µM, the TGI (OVCAR-4 ovarian) was 37.1 µM and the GI50 (OVCAR-8 ovarian) was 4.99 µM. For the same compound, the TGI (OVCAR-8 ovarian) was 60.5 µM, the GI50 (RXF 393 renal) was 2.45 µM and the TGI (RXF 393 renal) was 7.68 µM. The GI50 (K-562 leukemia) was 3.57 µM, the TGI (K-562 leukemia) was 15 µM and the GI50 (SNB-75 CNS) was 6.35 µM. It also gave a TGI (SNB-75 CNS) of 49 µM, a GI50 (HCT-15 colon) of 4.62 µM and a TGI (HCT-15 colon) of 21 µM. It also gave a GI50 (LOX IMVI melanoma) of 6.14 µM, a TGI (LOX IMVI melanoma) of 19.5 µM and a GI50 (IGROV1 ovarian) of 9.94 µM. It also gave a TGI (IGROV1 ovarian) of 39.6 µM, a GI50 (MCF7 breast) of 3.16 µM and a TGI (MCF7 breast) of 23.1 µM. It also gave a GI50 (U251 glioblastoma) of 5.66 µM, a TGI (U251 glioblastoma) of 19.1 µM and a GI50 (HS 578T breast) of 3.04 µM. The TGI (HS 578T breast) was 23.4 µM, the GI50 (NCI-H322M lung) was 15.4 µM and the TGI (NCI-H322M lung) was 97.8 µM. For the same compound, the GI50 (KM12 colon) was 4.9 µM, the TGI (KM12 colon) was 24.6 µM and the GI50 (NCI-H522 lung) was 2.6 µM. It also gave a TGI (NCI-H522 lung) of 8.91 µM, a GI50 (NCI-H23 lung) of 4.5 µM and a TGI (NCI-H23 lung) of 35 µM. The GI50 (SR leukemia) was 2.87 µM, the TGI (SR leukemia) was 8.95 µM and the GI50 (ACHN renal) was 6.38 µM. For the same compound, the TGI (ACHN renal) was 26.2 µM, the GI50 (COLO 205 colon) was 27.8 µM and the TGI (COLO 205 colon) was 81.8 µM. For the same compound, the GI50 (SF-268 CNS) was 11.2 µM, the TGI (SF-268 CNS) was 70 µM and the GI50 (MALME-3M melanoma) was 4.41 µM. The TGI (MALME-3M melanoma) was 29.9 µM, the GI50 (A549 NSCLC) was 4.89 µM and the TGI (A549 NSCLC) was 70.7 µM. For the same compound, the GI50 (PC-3 prostate) was 3.42 µM, the TGI (PC-3 prostate) was 20.2 µM and the GI50 (RPMI-8226 leukemia) was 1.8 µM. It also gave a TGI (RPMI-8226 leukemia) of 4.17 µM, a GI50 (SF-295 CNS) of 13 µM and a TGI (SF-295 CNS) of 29.3 µM. The GI50 (HT29 colon) was 35.6 µM, the TGI (HT29 colon) was > 100 µM and the GI50 (HCC-2998 colon) was 5.31 µM. For the same compound, the TGI (HCC-2998 colon) was 20.5 µM, the GI50 (TK-10 renal) was 3.69 µM and the TGI (TK-10 renal) was 20.1 µM. The GI50 (T-47D breast) was 2.38 µM, the TGI (T-47D breast) was > 100 µM and the GI50 (CAKI-1 renal) was 3.95 µM. It also gave a TGI (CAKI-1 renal) of 22.2 µM, a GI50 (SK-MEL-5 melanoma) of 4.57 µM and a TGI (SK-MEL-5 melanoma) of 16.4 µM. The GI50 (UACC-257 melanoma) was 6 µM, the TGI (UACC-257 melanoma) was 25.4 µM and the GI50 (MDA-MB-435 melanoma) was 7.55 µM. For the same compound, the TGI (MDA-MB-435 melanoma) was > 100 µM, the GI50 (UACC-62 melanoma) was 8.84 µM and the TGI (UACC-62 melanoma) was 23.2 µM. For the same compound, the GI50 (NCI-H460 NSCLC) was 6.22 µM, the TGI (NCI-H460 NSCLC) was 19.4 µM and the GI50 (HOP-92 NSCLC) was 6.46 µM. For the same compound, the TGI (HOP-92 NSCLC) was 42 µM, the GI50 (SK-MEL-2 melanoma) was 13.5 µM and the TGI (SK-MEL-2 melanoma) was 28 µM. The GI50 (DU-145 prostate) was 6.56 µM, the TGI (DU-145 prostate) was 64.7 µM and the GI50 (SK-OV-3 ovarian) was 6.01 µM. The TGI (SK-OV-3 ovarian) was 45.2 µM, the GI50 (HCT-116 colon) was 3.9 µM and the TGI (HCT-116 colon) was 13.7 µM. The GI50 (OVCAR-5 ovarian) was 14.8 µM, the TGI (OVCAR-5 ovarian) was > 100 µM and the GI50 (SN12C renal) was 10.4 µM. The TGI (SN12C renal) was > 100 µM, the GI50 (SNB-19 CNS) was 4.67 µM and the TGI (SNB-19 CNS) was > 100 µM. For the same compound, the GI50 (SW-620 colon) was 7.08 µM, the TGI (SW-620 colon) was 40.7 µM and the GI50 (UO-31 renal) was 4.75 µM. It also gave a TGI (UO-31 renal) of 23.2 µM.
Cc1c(Br)c(Br)c2c3c1nc(N1CCNCC1)n3CCC2 showed a GI50 (SK-MEL-28 melanoma) of 1.59 µM, a TGI (SK-MEL-28 melanoma) of 2.95 µM and a GI50 ([…]-0 renal) of 1.55 µM. The TGI (786-0 renal) was 2.9 µM, the GI50 (M14 melanoma) was 1.53 µM and the TGI (M14 melanoma) was 2.88 µM. The GI50 (OVCAR-4 ovarian) was 1.77 µM, the TGI (OVCAR-4 ovarian) was 3.51 µM and the GI50 (OVCAR-8 ovarian) was 1.47 µM. The TGI (OVCAR-8 ovarian) was 2.85 µM, the GI50 (RXF 393 renal) was 1.39 µM and the TGI (RXF 393 renal) was 2.68 µM. It also gave a GI50 (K-562 leukemia) of 1.52 µM, a TGI (K-562 leukemia) of 2.89 µM and a GI50 (SNB-75 CNS) of 1.97 µM. The TGI (SNB-75 CNS) was 3.4 µM, the GI50 (HCT-15 colon) was 1.6 µM and the TGI (HCT-15 colon) was 2.98 µM. It also gave a GI50 (LOX IMVI melanoma) of 1.49 µM, a TGI (LOX IMVI melanoma) of 2.84 µM and a GI50 (IGROV1 ovarian) of 1.31 µM. It also gave a TGI (IGROV1 ovarian) of 2.61 µM, a GI50 (MCF7 breast) of 1.17 µM and a TGI (MCF7 breast) of 2.42 µM. The GI50 (U251 glioblastoma) was 1.66 µM, the TGI (U251 glioblastoma) was 3.04 µM and the GI50 (HS 578T breast) was 1.87 µM. For the same compound, the TGI (HS 578T breast) was 3.28 µM, the GI50 (NCI-H322M lung) was 1.73 µM and the TGI (NCI-H322M lung) was 3.42 µM. For the same compound, the GI50 (KM12 colon) was 1.41 µM, the TGI (KM12 colon) was 2.73 µM and the GI50 (NCI-H522 lung) was 0.347 µM. It also gave a TGI (NCI-H522 lung) of 1.8 µM, a GI50 (NCI-H23 lung) of 1.66 µM and a TGI (NCI-H23 lung) of 3.09 µM. For the same compound, the GI50 (SR leukemia) was 1.03 µM, the TGI (SR leukemia) was 2.24 µM and the GI50 (ACHN renal) was 1.37 µM. For the same compound, the TGI (ACHN renal) was 2.73 µM, the GI50 (COLO 205 colon) was 1.8 µM and the TGI (COLO 205 colon) was 3.21 µM. For the same compound, the GI50 (SF-268 CNS) was 1.33 µM, the TGI (SF-268 CNS) was 2.65 µM and the GI50 (MALME-3M melanoma) was 1.42 µM. The TGI (MALME-3M melanoma) was 2.73 µM, the GI50 (A549 NSCLC) was 1.75 µM and the TGI (A549 NSCLC) was 3.35 µM. It also gave a GI50 (PC-3 prostate) of 1.32 µM, a TGI (PC-3 prostate) of 2.67 µM and a GI50 (RPMI-8226 leukemia) of 0.81 µM. The TGI (RPMI-8226 leukemia) was 2.27 µM, the GI50 (SF-295 CNS) was 1.69 µM and the TGI (SF-295 CNS) was 3.1 µM. It also gave a GI50 (HT29 colon) of 1.62 µM, a TGI (HT29 colon) of 3.06 µM and a GI50 (HCC-2998 colon) of 0.976 µM. It also gave a TGI (HCC-2998 colon) of 2.23 µM, a GI50 (TK-10 renal) of 1.51 µM and a TGI (TK-10 renal) of 2.88 µM. The GI50 (T-47D breast) was 1.52 µM, the TGI (T-47D breast) was 2.86 µM and the GI50 (CAKI-1 renal) was 1.59 µM. The TGI (CAKI-1 renal) was 2.99 µM, the GI50 (SK-MEL-5 melanoma) was 1.25 µM and the TGI (SK-MEL-5 melanoma) was 2.51 µM. The GI50 (UACC-257 melanoma) was 1.62 µM, the TGI (UACC-257 melanoma) was 2.99 µM and the GI50 (MDA-MB-435 melanoma) was 1.85 µM. The TGI (MDA-MB-435 melanoma) was 3.27 µM, the GI50 (UACC-62 melanoma) was 1.48 µM and the TGI (UACC-62 melanoma) was 2.82 µM. The GI50 (NCI-H460 NSCLC) was 1.39 µM, the TGI (NCI-H460 NSCLC) was 2.73 µM and the GI50 (HOP-92 NSCLC) was 1.75 µM. It also gave a TGI (HOP-92 NSCLC) of 3.3 µM, a GI50 (SK-MEL-2 melanoma) of 1.38 µM and a TGI (SK-MEL-2 melanoma) of 2.68 µM. The GI50 (DU-145 prostate) was 1.67 µM, the TGI (DU-145 prostate) was 3.12 µM and the GI50 (SK-OV-3 ovarian) was 1.36 µM. For the same compound, the TGI (SK-OV-3 ovarian) was 2.74 µM, the GI50 (HCT-116 colon) was 1.37 µM and the TGI (HCT-116 colon) was 2.7 µM. It also gave a GI50 (OVCAR-5 ovarian) of 1.74 µM, a TGI (OVCAR-5 ovarian) of 3.24 µM and a GI50 (SN12C renal) of 1.64 µM. For the same compound, the TGI (SN12C renal) was 3.02 µM, the GI50 (SNB-19 CNS) was 1.75 µM and the TGI (SNB-19 CNS) was 3.24 µM. For the same compound, the GI50 (SW-620 colon) was 1.25 µM, the TGI (SW-620 colon) was 2.51 µM and the GI50 (UO-31 renal) was 1.45 µM. It also gave a TGI (UO-31 renal) of 2.78 µM.
